Measured values from paper PMC8698657, “Absorption and Transport Characteristics and Mechanisms of Carnosic Acid” (Biology, 2021).
Read-outs that look alike come from different tables or passages of the source.

Columns and labels:
[1] = MTT assay, non-toxic dose range of CA; format: cell-based; settings: human, Caco-2 cells, CA 100 μM, vs untreated cells, read-out: cell viability
Experimental: (§1) Caco-2 were cultured in EMEM complete medium containing 10% FBS, 1% non-essential amino acids, and 1% penicillin-streptomycin double antibody, and the culture conditions were 37 °C, 5% CO2, in a constant temperature incubator [16]. We first established non-toxic dose ranges of CA in Caco-2 cells using MTT assay. Dimethylsulfoxide (DMSO) was used as the vehicle to deliver CA to the cells. The final concentration of DMSO in all experiments was 0.1% (v/v) in cell culture media. Caco-2 cells were seeded in a 96-well plate at a cell density of 5 × 10^4 cells/mL per well, and cultured under 5% CO2 and 37 °C for 24 h. A quantity of 200 μL of medium was added to each well to obtain a series of CA solutions (concentrations of 25, 50, 75, and 100 μmoL). After 48 h of treatment, Caco-2 cells were subjected to the MTT assay as described previously. For the transport study, Caco-2 cells were seeded on the apical compartment (AP) of 12-well Transwell plates at a density of 2 × 10^5 cells/mL. The complete culture medium was added into basolateral (BL) and AP compartments. The basolateral medium was replaced every other day.

[2] = cited from earlier work
[3] = Trans-enterocyte transport of CA in Caco-2 cell monolayer; format: in vitro ADME, human; settings: human
Experimental: as §1
CA was dissolved in HBSS solution at 50, 75, and 100 μM. The HBSS solution containing CA combined with 0.5% Tween 80, 5 mmol/L EDTA or 5% PEG 400 was prepared. The cumulative migration (Qr), apparent permeability coefficient (Papp), and the Papp value of bi-direction transport of CA were calculated according to formulas.
The 0.5 mL […] containing different concentrations of CA was added to the AP side of the 12-well Transwell plate, and 1.5 mL HBSS solution was added to the BL side. At 0, 0.5, 1, 1.5, 2, 2.5, and 3 h, 0.2 mL medium was taken from the BL side and stored at −80 °C. The TEER value of each Transwell chamber was measured.
The cryopreserved Transwell samples were transferred to a 15 mL centrifuge tube, and any remaining liquid was fully washed using 1 mL of 50% methanol solution which was also transferred to the 15 mL centrifuge tube. The mixture was vortexed for 1 min, and 6 mL of ethyl acetate solution was added to the tube and vortexed for another 2 min. The mixture was centrifuged at 6000 rpm/min at 4 °C for 10 min. The supernatant was dried under vacuum, dissolved in 5% phosphoric acid methanol solution, and filtered through a 0.22 μm microporous membrane. The concentration of CA was determined by HPLC as described above.

[4] = Caco-2, CA 50 μM, Average of 0.5-3.0 h

For `CC(C)c1cc2c(c(O)c1O)[C@@]1(C(=O)O)CCCC(C)(C)[C@@H]1CC2` [CA, Carnosic acid], the viability at 48 h, 100 μM [1] is listed as greater than 90%, the “toxicity of orally administered CA” value ([2]; 64.3 and 90 mg/kg oral) is listed as “nontoxic” and the circulating concentration ([2]; rats, 4 h after oral gavage) is listed as 0.39 µg/mL. For the same molecule, the main elimination route ([2]; rats, oral 64.3 ± 5.8 mg/kg) was “fecal excretion”, the overall bioavailability ([2]; rats, oral) was 40–65% and the Papp B→A at 0.5 h, 50 μM ([3]; Caco-2, CA 50 μM, 0.5 h) was 0.12 ± 0.1 ×10⁻⁶ cm/s. The efflux ratio at 0.5 h, 50 μM ([3]; Caco-2, CA 50 μM, 0.5 h) was 0.42, the Papp A→B at 0.5 h, 50 μM ([3]; Caco-2, CA 50 μM, 0.5 h, CA alone, read-out: Papp AP to BL) was 0.28 ± 0.07 ×10⁻⁶ cm/s and the Papp A→B at 0.5 h, 50 μM ([3]; Caco-2, CA 50 μM, 0.5 h, read-out: Papp AP-BL) was 0.28 ± 0.07 ×10⁻⁶ cm/s. It also gave a Papp B→A at 1 h, 50 μM ([3]; Caco-2, CA 50 μM, 1.0 h) of 0.21 ± 0.09 ×10⁻⁶ cm/s, an efflux ratio at 1 h, 50 μM ([3]; Caco-2, CA 50 μM, 1.0 h) of 0.58 and a Papp A→B at 1 h, 50 μM ([3]; Caco-2, CA 50 μM, 1.0 h, CA alone, read-out: Papp AP to BL) of 0.36 ± 0.01 ×10⁻⁶ cm/s. The Papp A→B at 1 h, 50 μM ([3]; Caco-2, CA 50 μM, 1.0 h, read-out: Papp AP-BL) was 0.36 ± 0.01 ×10⁻⁶ cm/s, the Papp B→A at 1.5 h, 50 μM ([3]; Caco-2, CA 50 μM, 1.5 h) was 0.36 ± 0.06 ×10⁻⁶ cm/s and the efflux ratio at 1.5 h, 50 μM ([3]; Caco-2, CA 50 μM, 1.5 h) was 0.52. For the same molecule, the Papp A→B at 1.5 h, 50 μM ([3]; Caco-2, CA 50 μM, 1.5 h, CA alone, read-out: Papp AP to BL) was 0.69 ± 0.09 ×10⁻⁶ cm/s, the Papp A→B at 1.5 h, 50 μM ([3]; Caco-2, CA 50 μM, 1.5 h, read-out: Papp AP-BL) was 0.69 ± 0.09 ×10⁻⁶ cm/s and the Papp B→A at 2 h, 50 μM ([3]; Caco-2, CA 50 μM, 2.0 h) was 0.49 ± 0.07 ×10⁻⁶ cm/s. It also gave an efflux ratio at 2 h, 50 μM ([3]; Caco-2, CA 50 μM, 2.0 h) of 0.44, a Papp A→B at 2 h, 50 μM ([3]; Caco-2, CA 50 μM, 2.0 h, CA alone, read-out: Papp AP to BL) of 1.11 ± 0.04 ×10⁻⁶ cm/s and a Papp A→B at 2 h, 50 μM ([3]; Caco-2, CA 50 μM, 2.0 h, read-out: Papp AP-BL) of 1.11 ± 0.04 ×10⁻⁶ cm/s. For the same molecule, the Papp B→A at 2.5 h, 50 μM ([3]; Caco-2, CA 50 μM, 2.5 h) was 0.56 ± 0.05 ×10⁻⁶ cm/s, the efflux ratio at 2.5 h, 50 μM ([3]; Caco-2, CA 50 μM, 2.5 h) was 0.98 and the Papp A→B at 2.5 h, 50 μM ([3]; Caco-2, CA 50 μM, 2.5 h, CA alone, read-out: Papp AP to BL) was 0.57 ± 0.03 ×10⁻⁶ cm/s. It also gave a Papp A→B at 2.5 h, 50 μM ([3]; Caco-2, CA 50 μM, 2.5 h, read-out: Papp AP-BL) of 0.57 ± 0.03 ×10⁻⁶ cm/s, a Papp B→A at 3 h, 50 μM ([3]; Caco-2, CA 50 μM, 3.0 h) of 0.29 ± 0.03 ×10⁻⁶ cm/s and an efflux ratio at 3 h, 50 μM ([3]; Caco-2, CA 50 μM, 3.0 h) of 1.32. It also gave a Papp A→B at 3 h, 50 μM ([3]; Caco-2, CA 50 μM, 3.0 h, CA alone, read-out: Papp AP to BL) of 0.22 ± 0.02 ×10⁻⁶ cm/s, a Papp A→B at 3 h, 50 μM ([3]; Caco-2, CA 50 μM, 3.0 h, read-out: Papp AP-BL) of 0.22 ± 0.02 ×10⁻⁶ cm/s and a Papp B→A at 50 μM [3, 4] of 0.33 ± 0.03 ×10⁻⁶ cm/s. It also gave an efflux ratio at 50 μM [3, 4] of 0.62, a Papp A→B at 50 μM ([3]; Caco-2, CA 50 μM, Average of 0.5-3.0 h, CA alone, read-out: Papp AP to BL) of 0.54 ± 0.05 ×10⁻⁶ cm/s and a Papp A→B at 50 μM ([3]; Caco-2, CA 50 μM, Average of 0.5-3.0 h, read-out: Papp AP-BL) of 0.53 ± 0.02 ×10⁻⁶ cm/s. The Papp B→A at 0.5 h, 75 μM ([3]; Caco-2, CA 75 μM, 0.5 h) was 0.91 ± 0.02 ×10⁻⁶ cm/s, the efflux ratio at 0.5 h, 75 μM ([3]; Caco-2, CA 75 μM, 0.5 h) was 0.88 and the Papp A→B at 0.5 h, 75 μM ([3]; Caco-2, CA 75 μM, 0.5 h, CA alone, read-out: Papp AP to BL) was 1.03 ± 0.01 ×10⁻⁶ cm/s. The Papp A→B at 0.5 h, 75 μM ([3]; Caco-2, CA 75 μM, 0.5 h, read-out: Papp AP-BL) was 1.03 ± 0.01 ×10⁻⁶ cm/s, the Papp B→A at 1.5 h, 75 μM ([3]; Caco-2, CA 75 μM, 1.5 h) was 0.79 ± 0.07 ×10⁻⁶ cm/s and the efflux ratio at 1.5 h, 75 μM ([3]; Caco-2, CA 75 μM, 1.5 h) was 0.95. It also gave a Papp A→B at 1.5 h, 75 μM ([3]; Caco-2, CA 75 μM, 1.5 h, CA alone, read-out: Papp AP to BL) of 0.83 ± 0.01 ×10⁻⁶ cm/s, a Papp A→B at 1.5 h, 75 μM ([3]; Caco-2, CA 75 μM, 1.5 h, read-out: Papp AP-BL) of 0.83 ± 0.01 ×10⁻⁶ cm/s and a Papp B→A at 2 h, 75 μM ([3]; Caco-2, CA 75 μM, 2.0 h) of 0.62 ± 0.01 ×10⁻⁶ cm/s. It also gave an efflux ratio at 2 h, 75 μM ([3]; Caco-2, CA 75 μM, 2.0 h) of 0.33, a Papp A→B at 2 h, 75 μM ([3]; Caco-2, CA 75 μM, 2.0 h, CA alone, read-out: Papp AP to BL) of 1.84 ± 0.1 ×10⁻⁶ cm/s and a Papp A→B at 2 h, 75 μM ([3]; Caco-2, CA 75 μM, 2.0 h, read-out: Papp AP-BL) of 1.84 ± 0.1 ×10⁻⁶ cm/s. The Papp B→A at 2.5 h, 75 μM ([3]; Caco-2, CA 75 μM, 2.5 h) was 0.41 ± 0.03 ×10⁻⁶ cm/s.
